# Data published in patent publication US4013794A, “O-alkyl-S-alkyl-O-phenyl phosphates and insecticidal and acaricidal method of use” (priority 1973, dated 1977).
# Legend:
# warm-blooded animals = details: prior-art compounds; cited from earlier work
# [1] = test system: two-spotted spider mite (Tetranychus urticae); assay: Tetranychus test (resistant); assay type: in vivo; details: 48 h, after 2 days, read-out: Degree of destruction in % after 2 days; for mortality at 0.01 % strength: 0.01 % active compound concentration; for mortality at 0.1 % strength: 0.1 % active compound concentration
# Method: Solvent: 3 parts by weight of acetone
# Emulsifier: 1 part by weight of alkylaryl polyglycol ether
# To produce a suitable preparation of active compound, 1 part by weight of the active compound was mixed with the stated amount of solvent and the stated amount of emulsifier and the concentrate was diluted with water to the desired concentration.
# These bean plants were heavily infested with the two-spotted spider mite (Tetranychus urticae) in all stages of development.
# After the specified periods of time, the effectiveness of the preparation of active compounds was determined by counting the dead mites. The degree of destruction thus obtained is expressed as a percentage: 100% means that all the spider mites were killed, whereas 0% means that none of the spider mites were killed.
# [2] = Toxicity test (peroral), albino rat; details: in vivo, po, evaluation after 7 days, read-out: LD50 values (in mg/kg of body weight)
# Method: Test animal: Albino rat (Rattus norvegicus)
# To produce a suitable preparation of active compound, 3 parts by weight of active compound were mixed with 2.8 parts by weight of highly dispersible silica and 4.2 parts by weight of talc. Suspensions which contained, in 1 ml of liquid, the amount of active compound to be applied per 100 g of animal weight, were prepared from the above active-compound concentrate, with a little added powdered vegetable gum, by grinding with water. Dosing was effected volumetrically after weighing the test animals. A steel, knob-ended probe was used for oral administration. The evaluation was carried out in each case after the end of the above-mentioned time interval, calculated from the administration of the active compound.
# The LD50 values (dose of active compound at which 50% of the treated animals were killed) were determined in the usual manner from the mortality figures of the doses, which were varied in geometrical progression.
# [3] = test system: fly larvae (Lucilia cuprina res.); assay: Test with parasitic fly larvae; assay type: in vivo; details: after 24 hours, read-out: Degree of destruction in %
# Method: Solvent: 35 parts by weight of ethylene polyglycol monomethyl ether
# Emulsifier: 35 parts by weight of nonylphenol polyglycol ether.
# To produce a suitable preparation of active compound, 30 parts by weight of the active substance in question were mixed with the stated amount of solvent which contained the above-mentioned proportion of emulsifier and the concentrate thus obtained was diluted with water to the desired concentration.
# About 20 fly larvae (Lucilia cuprina) were introduced into a test tube which contained approximately 2 ml of horse muscle. 0.5 ml of the preparation of active compound was applied to this horse meat. After 24 hours, the degree of destruction was determined in %. 100% means that all the larvae had been killed and 0% means that no larvae had been killed.
# [4] = test system: caterpillars of the diamond-back moth (Plutella maculipennis); assay: Plutella Test; assay type: in vivo; details: 72 h, after 3 days, read-out: Degree of destruction in % after 3 days; for mortality at 0.004 % strength: 0.004 % active compound; for mortality at 0.02 % strength: 0.02 % active compound; for mortality at 0.1 % strength: 0.1 % active compound; for mortality at 0.0008 % strength: 0.0008 % active compound
# Method: (§1) Solvent: 3 parts by weight Acetone
# (§2) Emulsifier: 1 part by weight Alkylaryl polyglycol ether
# (§3) To produce a suitable preparation of active compound, 1 part by weight of the active compound is mixed with the stated amount of solvent and the stated amount of emulsifier and the concentrate is diluted with water to the desired concentration.
# Cabbage leaves (Brassica oleracea) are sprayed with the preparation of the active compound until dew moist and are then infested with caterpillars of the diamond-back moth (Plutella maculipennis).
# After the specified periods of time, the degree of destruction is determined as a percentage: 100 % means that all the caterpillars are killed whereas 0 % means that none of the caterpillars are killed.
# [5] = test system: larvae of mustard beetles (Phaedon cochleariae); assay: Phaedon-Larvae-Test; assay type: in vivo; details: in Brassica, 72 h, after 3 days, read-out: Degree of destruction in % after 3 days; for mortality at 0.004 % strength: 0.004 % active compound; for mortality at 0.02 % strength: 0.02 % active compound; for mortality at 0.1 % strength: 0.1 % active compound
# Method: as §1, §2
# To produce a suitable preparation of the particular active compound, 1 part by weight of such active compound is mixed with the stated amount of solvent and the stated amount of emulsifier, and the resulting concentrate is diluted with water to the desired final concentration.
# Cabbage leaves (Brassica oleracea) are sprayed with the preparation of the given active compound until dripping wet and then infested with the larvae of mustard beetles (Phaedon cochleariae).
# After specified periods of time, the degree of destruction is determined as a percentage: 100 % means that all the beetle larvae are killed, 0 % means that none of the beetle larvae are killed. The active compounds, the concentrations used, the evaluation time and the results obtained can be seen from the following Table 5: […]
# [6] = test system: peach aphids (Myzus persicae); assay: Myzus Test (contact action); assay type: in vivo; details: 24 h, after 1 day, read-out: Degree of destruction in % after 1 day; for mortality at 0.02 % strength: 0.02 % active compound; for mortality at 0.1 % strength: 0.1 % active compound
# Method: as §1, §2, §3
# Cabbage plants (Brassica oleracea) which have been heavily infested with peach aphids (Myzus persicae) are sprayed with the preparation of the active compound until dripping wet.
# After the specified periods to time, the degree of destruction is determined as a percentage: 100 % means that all the aphids are killed whereas 0 % means that none of the aphids are killed.
smiles,measurement,setting,value
"CCOP(=S)(OCC)Oc1ccc(S(=O)(=O)CCl)cc1 [Compound A, O,O-diethyl-O-(4-chloromethylsulfonylphenyl)-thionophosphoric acid ester]",toxicity towards warm-blooded animals,warm-blooded animals,high toxicity
"CCOP(=S)(OCC)Oc1ccc(S(=O)(=O)CCl)cc1 [drawing 6, reference compound]",mortality at 0.01 % strength,[1],0%
same,mortality at 0.1 % strength,[1],50%
CCCSP(=S)(OCC)Oc1ccc(S(=O)(=O)CCl)cc1Cl (stereo not drawn) [drawing 7],mortality at 0.01 % strength,[1],60%
same,mortality at 0.1 % strength,[1],100%
"CCOP(=S)(OCC)Oc1ccc(S(=O)(=O)CCl)cc1 [drawing 8, reference compound]",LD50 at 168 h,[2],2.5 to 5 mg/kg
CCCSP(=S)(OCC)Oc1ccc(S(C)(=O)=O)cc1Cl (stereo not drawn) [drawing 9],LD50 at 168 h,[2],50 to 100 mg/kg
CCCSP(=S)(OCC)Oc1ccc(S(C)(=O)=O)cc1Br (stereo not drawn) [drawing 10],LD50 at 168 h,[2],50 to 100 mg/kg
CCCSP(=S)(OCC)Oc1ccc(S(=O)(=O)CCl)cc1 (stereo not drawn) [drawing 11],LD50 at 168 h,[2],~250 mg/kg
CCCSP(=S)(OCC)Oc1ccc(S(=O)(=O)CCl)cc1Cl (stereo not drawn) [drawing 12],LD50 at 168 h,[2],100 to 250 mg/kg
CCCSP(=S)(OCC)Oc1ccc(SC(F)C(=O)OCC)cc1 (stereo not drawn) [drawing 13],LD50 at 168 h,[2],100 to 250 mg/kg
CCCSP(=S)(OCC)Oc1ccc(S(=O)(=O)CCl)cc1 (stereo not drawn) [drawing 14],mortality at 1 ppm,[3],0%
same,mortality at 10 ppm,[3],100%
same,mortality at 30 ppm,[3],100%
same,mortality at 100 ppm,[3],100%
CCCSP(=S)(OCC)Oc1ccc(S(C)(=O)=O)cc1Cl (stereo not drawn) [drawing 15],mortality at 1 ppm,[3],0%
same,mortality at 3 ppm,[3]; 3 ppm,100%
same,mortality at 10 ppm,[3],100%
same,mortality at 30 ppm,[3],100%
same,mortality at 100 ppm,[3],100%
CCCSP(=S)(OCC)Oc1ccc(SC(F)C(=O)OCC)cc1 (stereo not drawn) [drawing 16],mortality at 10 ppm,[3],0%
same,mortality at 30 ppm,[3],> 50%
same,mortality at 100 ppm,[3],100%
"CCOP(=S)(Oc1ccc(S(C)(=O)=O)cc1)SC (stereo not drawn) [drawing 17, reference compound]",mortality at 0.004 % strength,[4],0%
same,mortality at 0.02 % strength,[4],85%
same,mortality at 0.1 % strength,[4],100%
CCCSP(=S)(OCC)Oc1ccc(S(C)(=O)=O)cc1 (stereo not drawn) [drawing 18],mortality at 0.004 % strength,[4],100%
same,mortality at 0.02 % strength,[4],100%
same,mortality at 0.1 % strength,[4],100%
CCCSP(=S)(OCC)Oc1ccc(S(=O)(=O)CCl)cc1 (stereo not drawn) [drawing 19],mortality at 0.004 % strength,[4],100%
same,mortality at 0.02 % strength,[4],100%
same,mortality at 0.1 % strength,[4],100%
CCCSP(=S)(OCC)Oc1ccc(S(C)(=O)=O)cc1Cl (stereo not drawn) [drawing 20],mortality at 0.0008 % strength,[4],100%
same,mortality at 0.004 % strength,[4],100%
same,mortality at 0.02 % strength,[4],100%
same,mortality at 0.1 % strength,[4],100%
CCCSP(=S)(OCC)Oc1ccc(Cl)cc1Cl (stereo not drawn) [drawing 21],mortality at 0.0008 % strength,[4],0%
same,mortality at 0.004 % strength,[4],100%
same,mortality at 0.02 % strength,[4],100%
same,mortality at 0.1 % strength,[4],100%
CCCSP(=S)(OCC)Oc1ccc(S(C)(=O)=O)cc1Br (stereo not drawn) [drawing 22],mortality at 0.0008 % strength,[4],90%
same,mortality at 0.004 % strength,[4],100%
same,mortality at 0.02 % strength,[4],100%
same,mortality at 0.1 % strength,[4],100%
"CCCSP(=S)(OCC)Oc1ccc(Cl)cc1Cl (stereo not drawn) [drawing 23, reference compound]",mortality at 0.004 % strength,[5],20%
same,mortality at 0.02 % strength,[5],100%
same,mortality at 0.1 % strength,[5],100%
CCOP(=S)(Oc1ccc(S(C)(=O)=O)cc1)SC (stereo not drawn) [drawing 24],mortality at 0.004 % strength,[5],15%
same,mortality at 0.02 % strength,[5],100%
same,mortality at 0.1 % strength,[5],100%
CCCSP(=S)(OCC)Oc1ccc(S(C)(=O)=O)cc1 (stereo not drawn) [drawing 25],mortality at 0.004 % strength,[5],100%
same,mortality at 0.02 % strength,[5],100%
same,mortality at 0.1 % strength,[5],100%
CCCSP(=S)(OCC)Oc1ccc(S(C)(=O)=O)cc1Br (stereo not drawn) [drawing 26],mortality at 0.004 % strength,[5],100%
same,mortality at 0.02 % strength,[5],100%
same,mortality at 0.1 % strength,[5],100%
"CCOP(=S)(Oc1ccc(S(C)(=O)=O)cc1)SC (stereo not drawn) [drawing 27, reference compound]",mortality at 0.02 % strength,[6],0%
same,mortality at 0.1 % strength,[6],35%
CCCSP(=S)(OCC)Oc1ccc(S(C)(=O)=O)cc1 (stereo not drawn) [drawing 28],mortality at 0.02 % strength,[6],60%
same,mortality at 0.1 % strength,[6],100%
CCCSP(=S)(OCC)Oc1ccc(S(C)(=O)=O)cc1Cl (stereo not drawn) [drawing 29],mortality at 0.02 % strength,[6],90%
same,mortality at 0.1 % strength,[6],100%
CCCSP(=S)(OCC)Oc1ccc(S(=O)(=O)CCl)cc1 (stereo not drawn) [drawing 30],mortality at 0.02 % strength,[6],70%
same,mortality at 0.1 % strength,[6],100%
CCCSP(=S)(OCC)Oc1ccc(S(=O)(=O)CCl)cc1Cl (stereo not drawn) [drawing 31],mortality at 0.02 % strength,[6],55%
same,mortality at 0.1 % strength,[6],100%
